# “Also recorded” adds a separate entry of the source.
# Columns and labels:
# Pseudomonas aeruginosa = experiment: Biocidal performance, plate counting of viable bacteria (Example 20); assay type: cell-based; details: nominal 0.2 ppm total halogen as Cl2, phosphate buffer pH 8.5, 10 minutes at 35° C.
# Text: The biocidal performance of the liquid composition of the present invention was compared to a solution of sodium bromide activated using an equimolar amount of sodium hypochlorite bleach, and a solution prepared from 1-bromo-3-chloro-5,5-dimethylhydantoin (BCDMH). Sterile phosphate buffer samples (pH 8.5) were inoculated with Pseudomonas aeruginosa to give a concentration of approximately 5×10^6 bacteria/ml and then challenged with the test systems at a nominal concentration of 0.2 ppm total halogen (as Cl2).
# After a contact time of 10 minutes at 35° C., an aliquot of sodium thiosulfate was added to each sample to neutralize the halogen. The level of viable bacteria in each sample was determined by plate counting. Plates were incubated at 35° C. for 48 hours.
# [1] = cited from earlier work
# [2] = Dissolution of crystalline bromine-containing solid in water; assay type: physicochemical; details: crystalline solid dissolved in water
# Text: The resulting slurry was stirred as solid sodium hydroxide pellets were charged to the reaction flask. […] As the reaction proceeded, a fine powdery precipitate developed which was removed by vacuum filtration. […] Iodometric titration of the resulting golden yellow solution was used to determine its Br2 content of 27.2% (or 12.1% as Cl2). Within a few minutes, this highly concentrated bromine solution started to turn turbid as crystals began to form. The crystallizing solution was chilled in an ice bath to expedite the development of the crystals. A large crop of yellow crystalline material was separated by vacuum filtration, and the mother liquors were retitrated iodometrically. […] There were no insoluble residues. Iodometric titration of resulting solutions was used to calculate that the crystalline solid contained 29.9% Br2 (13.1% as Cl2).
# To a stirred reaction flask containing 40% sodium bromide solution was added solid sulfamic acid (82.3 g). The resultant slurry was stirred as 50% sodium hydroxide (60.2 g) was introduced. […] However, the reaction medium became very viscous, and this hampered the mixing efficiency, so deionized water (35.8 g) was added to thin the mixture. The fine powdery precipitate that developed was removed by vacuum filtration. […] The mother liquors were determined to have a bromine content of 20.9% as Br2 (9.3% as Cl2) by iodometric titration. […]
# [3] = Heating of crystals in ceramic crucible on hot plate (Example 23); assay type: physicochemical; details: towel-dried crystals heated on a hot plate
# Text: Another large portion of the crystalline mass was dried with a paper towel and placed in a ceramic crucible that was heated on a hot plate.
# [4] = Storage stability of anhydrous N-bromosulfamate sodium salt in vacuum dessicator (Example 24); assay type: physicochemical; details: three months of storage at room temperature in vacuum dessicator
# Procedure: A further portion of the towel dried crystals from Example 17 was dehydrated by placing in a vacuum dessicator containing molecular sieves. After 15 days, a loss of 31% of the original weight was determined. Although the crystals lost their glass-like appearance, the rhomobohedral shape was retained.
# The sodium salt of anhydrous N-bromosulfamate was placed back in the vacuum dessicator.
compound,measurement,setting,value
"CC1(C)C(=O)N(Cl)C(=O)N1Br [BCDMH, 1-bromo-3-chloro-5,5-dimethylhydantoin]",Log Reduction in viable bacteria/ml,Pseudomonas aeruginosa,3.3 Log
same,Viable bacteria/ml after 10 minutes,Pseudomonas aeruginosa; inoculum approx. 5×10^6 bacteria/ml,2.5 × 10^3 bacteria/ml
same,Water solubility,[1]; at 20° C.,0.1%
"O=S(=O)([O-])NBr.[Na+] [Example 17, sodium salt of hydrated N-bromosulfamate]",Dissolution in water,[2],dissolved rapidly and completely; also recorded: dissolved quickly and completely
same,"Temperature at which water of crystallization boiled off and product decomposed, evolving bromine vapors",[3],about 221 ° F.
O=S(=O)([O-])NBr.[Na+] [sodium salt of anhydrous N-bromosulfamate],Loss of activity on storage,[4],not to have lost any activity
O=c1n(Cl)c(=O)n(Cl)c(=O)n1Cl [trichloroisocyanuric acid],Saturated solution in water,[1]; at 25° C.,1.1 % as Cl2
